US6989252B2, “Hydrogen production using hydrogenase-containing oxygenic photosynthetic organisms” (Midwest Research Institute, priority 1999, dated 2006)

Tested on: H2-producing C. reinhardtii cultures
Assay: H2 gas collection from H2-producing sulfur-deprived cultures after inhibitor addition
Assay type: cell-based, Chlamydomonas reinhardtii
Conditions: inhibitor added to H2-producing sulfur-depleted cultures
Excerpt: Culture bottles (Schott or Roux type) were fitted with an #25 Ace thread and smaller side-ports for liquid sampling. A threaded glass stopper with capillaries for gas sampling was fitted with a Viton O-ring and used to seal the reactor. Threaded side-arm and gas sampling ports were sealed with rubber laminated Teflon septa. Teflon tubing (Aminco, HPLC), attached to one of the gas ports, was used to conduct gas evolved by the algae in the culture bottles to an upside-down graduated cylinder filled with H2O. The gas collection tubing was detached from the culture bottle during liquid and gas sampling to avoid disturbance of gas volume readings in the graduated cylinder.
We, thus, conclude that most of the reductants for H2 production are generated by residual water oxidation activity in sulfur-depleted C. reinhardtii cultures, but that an endogenous substrate may also contribute electrons for the process.

## CC1=C(Br)C(=O)C(C(C)C)=C(Br)C1=O [DBMIB]
  inhibition of H2 gas collection: Total inhibition

## CN(C)C(=O)Nc1ccc(Cl)c(Cl)c1 [DCMU]
% of initial value
  rate of H2 gas collection relative to its initial value: about 20%
